Several values for one entry are separate records, joined by “and”; a condition that tells them apart may be missing. Identical values can stand only once.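 Step 1: Grow cells in 96-well plates. Step 2: Expose to compound for 48 hours at 5 concentrations. Step 3: Interpolate endpoints linearly; if unreached, use highest concentration. GI50 marks 50% less growth. TGI marks complete inhibition of growth.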
What was measured:
Experiment in all cases: growth of human tumour cells (NCI), 48 h
[1] = tested on: MDA-N
[2] = tested on: DMS 114 small cell lung
[3] = tested on: LXFL 529 NSCLC
[4] = tested on: DLD-1 colon
[5] = tested on: XF 498 CNS
[6] = tested on: DMS 273 small cell lung
[7] = tested on: SNB-78 CNS
[8] = tested on: HOP-18 NSCLC
[9] = tested on: RXF-631 renal
[10] = tested on: SN12K1 renal

SMILES	TGI [1]	TGI [2]	TGI [3]	TGI [4]	TGI [5]	TGI [6]	TGI [7]	TGI [8]	also measured
COc1ccc2ccccc2c1C1NC(=O)c2ccccc2N1 (stereo not drawn)	0.413 µM								
COC(=O)c1cccn1C(=O)n1cccc1		> 100 µM	> 100 µM	> 100 µM	> 100 µM	> 100 µM	> 100 µM	> 100 µM	
Oc1ccc2ccccc2c1N=Nc1ccsc1		> 100 µM	> 100 µM	> 100 µM		> 100 µM	> 100 µM	> 100 µM	TGI [9]: > 100 µM
CC(C)=CCC/C(C)=C/CC/C(C)=C/CSc1ccccc1C(=O)O	57.8 µM								
COc1cc(-c2cc(O)c(-c3ccc4ccccc4n3)c(=O)[nH]2)cc(OC)c1OC	34.9 µM								
Oc1ccc(C(c2ccc(O)cc2)c2ccc(O)cc2)cc1	56 µM								
CCOC(=O)N1CCC(=O)C(CNC23CC4CC(CC(C4)C2)C3)C1 (stereo not drawn)			33.3 µM	46.4 µM	32.8 µM	52.9 µM			TGI [9]: > 100 µM
Cn1cnc([N+](=O)[O-])c1Sc1nc(N)nc2c1ncn2C1CC(O)C(CO)O1 (stereo not drawn)	> 100 µM								
CC(=O)OC(C)(C)/C(C)=C/C(=O)O[C@H]1C(=O)O[C@@H]2C[C@H]3[C@H](C)C(=O)C(O[C@@H]4O[C@H](CO)[C@@H](O)[C@H](O)[C@H]4O)=C[C@]3(C)[C@H]3[C@@H](O)[C@H](O)[C@@]4(C(=O)O)OC[C@]32[C@@H]14	> 100 µM								GI50 [1]: > 100 µM
O=c1ncc(F)cn1C1OC(CO)C(O)C1O (stereo not drawn)		> 41.9 µM	> 43.8 µM	> 100 µM	> 100 µM	> 44.6 µM	> 100 µM	> 100 µM	TGI [9]: > 100 µM
O=C(CCN1CCN(c2ccccc2)CC1)N1CCc2c([nH]c3ccccc23)C1c1cccnc1 (stereo not drawn)		27 µM	31.6 µM	36.2 µM		32.3 µM	37 µM	36.1 µM	
COC(=O)C(C(=O)C(=O)Nc1ccc([N+](=O)[O-])cc1[N+](=O)[O-])c1nc2ccc(Cl)cc2[nH]c1=O (stereo not drawn)		> 100 µM		> 100 µM	> 100 µM	> 100 µM	> 100 µM	> 100 µM	
O=c1[nH]c(=S)[nH]c2c1CN(CCCN1CCOCC1)CN2	> 100 µM								
Nc1nnnn1CCO	> 100 µM								
CC1CCCC(C(O)CC2CC(=O)NC(=O)C2)C1O (stereo not drawn)	> 100 µM								
NC(=O)/N=C1/CCC2C3CCCC2C13		> 100 µM	> 100 µM	> 100 µM	> 100 µM	> 100 µM	> 100 µM	> 100 µM	
CCC[CH2][Sn]1([CH2]CCC)[O]CC(CN(C)Cc2ccccc2)[O]1 (stereo not drawn)		14.3 µM	5 µM	26.1 µM	9.77 µM	20.5 µM	10.8 µM		GI50 [2]: 4.73 µM; GI50 [3]: 1.6 µM; GI50 [4]: 12.3 µM; GI50 [5]: 3.33 µM; GI50 [6]: 4.93 µM; GI50 [7]: 2.14 µM
O=[P+](O)c1ccsc1		> 100 µM	> 100 µM	> 100 µM		> 100 µM		> 100 µM	TGI [9]: > 100 µM
C[C@]12CC/C(=N\O)C=C1CC[C@@H]1C2CC[C@@]2(C)C1CC[C@@H]2OC1CCCCO1 (stereo partly drawn)		46.6 µM	31.8 µM	> 100 µM		32.6 µM	41.7 µM	30 µM	

SMILES	TGI [1]	TGI [2]	TGI [3]	TGI [4]	TGI [5]	TGI [6]	TGI [7]	TGI [8]	also measured
CC(C)([NH-])CO.CC(C)([NH-])CO.[Cl][Cd][Cl]		46.7 µM	29.3 µM		69.1 µM	30.2 µM			GI50 [2]: 19.8 µM; GI50 [3]: 15 µM; GI50 [5]: 20.4 µM; GI50 [6]: 13.5 µM
Cn1cnc([N+](=O)[O-])c1Sc1nccn1-c1cccc2ccccc12		62 µM	99.4 µM	98.5 µM	58.9 µM	79.8 µM	77.9 µM	8.89 µM	TGI [9]: 84.2 µM
Cc1cccc(C(C)(C)C)c1NC(=O)CC1C(=O)Nc2ccccc2S1(=O)=O (stereo not drawn)			24.5 µM	18.3 µM	23.1 µM	14.9 µM	22.1 µM		
CC(=O)C1C(c2ccc(N(C)C)cc2)c2cc3c(cc2OC1(C)O)OCO3 (stereo not drawn)		93.3 µM		> 100 µM	> 100 µM	> 100 µM	> 100 µM	> 100 µM	
C/C(=N\NS(=O)(=O)c1ccc(C)cc1)P(=O)(O)O	> 100 µM								
CCC/C(=N\NC(=S)N1CC2CCC(CC2)C1)c1ccccn1	2.72 µM		0.143 µM and 0.129 µM	3.33 µM	0.0981 µM and 0.53 µM	0.374 µM and 2.35 µM	8.71 µM	0.44 µM and 0.898 µM	GI50 [5]: 0.0106 µM; GI50 [7]: 0.408 µM; GI50 [8]: 0.0675 µM
COc1c2ccoc2c(OC)c2oc(=O)ccc12	> 100 µM								
COC(=O)C(C(=O)OC)C1CCCC(=O)C1 (stereo not drawn)			> 100 µM	> 100 µM	> 100 µM	> 100 µM	> 100 µM	> 100 µM	
Cc1ccc(NC(=O)CC2Sc3ccccc3NC2=O)c(C)c1 (stereo not drawn)		51.7 µM	71.1 µM	31 µM	37.5 µM	37.5 µM	63.2 µM	30.2 µM	TGI [9]: 33.1 µM
O=C(c1ccccc1)C1OC12C(=O)Nc1c(Cl)cc(Cl)cc12 (stereo not drawn)		> 100 µM	> 53.9 µM	45.7 µM	65.1 µM	47.7 µM	99.9 µM	> 100 µM	TGI [9]: > 100 µM
NCC1OC(n2cnc3c(N)ncnc32)CC1O (stereo not drawn)	> 100 µM								
Cc1ccc(S(=O)(=O)NC2(C=O)CCCC3CCCCC32)cc1 (stereo not drawn)		> 100 µM	> 100 µM	> 100 µM		> 100 µM	> 100 µM	> 100 µM	TGI [9]: > 100 µM
Nc1nc2c(ncn2C2C=CC(CO)C2)c(=O)[nH]1 (stereo not drawn)	> 100 µM								
COc1cc(N(C)C)c(OC)cc1/C=C\c1ccnc2ccccc12	3.97 µM								
O=C(O)C1(C(=O)O)CCC1.[NH2-].[NH2-].[Pt+2]	> 250 µM		> 250 µM	> 237 µM		228 µM	217 µM	118 µM	GI50 [3]: 247 µM; GI50 [4]: 206 µM; GI50 [1]: 182 µM and > 220 µM; GI50 [6]: 64.7 µM; GI50 [7]: 96.4 µM; GI50 [10]: 107 µM; TGI [10]: 185 µM; GI50 [8]: > 77.3 µM and 111 µM
CN1C(=O)C2C3C=C4c5ccccc5N(c5ccccc5)C4(C2C1=O)[C@H]1C(=O)N(C)C(=O)[C@@H]31 (stereo partly drawn)		> 100 µM	> 100 µM	> 100 µM	> 100 µM				
C/C1=C/C(=O)O[C@@H]2C[C@@H](CC[C@H](C)/C=C\C=C\CC1)O[C@@](O)([C@@H]1CSC(=O)N1)C2	> 10 µM								
CC(Nc1ccc(S(=O)(=O)N=C(N)N)cc1)c1c2ccccc2nc2ccccc12 (stereo not drawn)		> 100 µM	80.6 µM	> 100 µM	36.1 µM	> 100 µM			TGI [9]: 96.6 µM
CC12CCC3(OCCO3)C(OC(=O)c3ccccc3)=C1CCC21OCCO1 (stereo not drawn)		> 100 µM	> 100 µM	> 100 µM		> 100 µM	> 100 µM	> 100 µM	TGI [9]: > 100 µM

— PubChem BioAssay (NCI)
